Assay results from patent publication US8906967B2 (priority 2007, dated 2014).
Like-named read-outs stand apart in the source and are kept apart here.

Tested on: Clostridium perfringens ATCC 13124
Type: cell-based
Settings: 37° C., culture broth

Row | Molecule | growth of Clostridium perfringens (2 ppm sesquiterpene) | growth of Clostridium perfringens (1.2 ppm sesquiterpene) | growth of Clostridium perfringens (10 ppm sesquiterpene) | growth of Clostridium perfringens (100 ppm sesquiterpene) | other results
1 | α-bisabolol | + |  |  |  | 
2 | C/C1=C\CC/C(C)=C/CC(C)(C)/C=C/C1 [α-humulene (α-caryophyllene)] | − | − | − |  | growth of Clostridium perfringens (0.3 ppm sesquiterpene): +; growth of Clostridium perfringens (0.4 ppm sesquiterpene): +
3 | C[C@@H]1CC[C@@H]2[C@H](C3=C1CC[C@H]3C)C2(C)C [(−) iso-ledene] |  |  |  | − | growth of Clostridium perfringens (0.5 ppm sesquiterpene): +
4 | C=C1CC[C@@H]2[C@H]([C@@H]3[C@H](C)CC[C@@H]13)C2(C)C [Aromadendrene] |  |  |  | − | growth of Clostridium perfringens (0.5 ppm sesquiterpene): +
5 | CC(C)=CCC/C(C)=C/CC/C(C)=C/CO [trans-trans farnesol] | + |  | − |  | 
6 | CC(=O)CCC=C(C)CCC=C(C)CCC=C(C)C [farnesyl acetone] | − |  | − |  | 
7 | cedrene-9-ol | + |  | + |  | 
8 | C=C1CC[C@@]23C[C@@H]1C(C)(C)[C@@H]2CC[C@H]3C [β-cedrene] | − | − | − |  | 
9 | CC(C)=C1C/C=C(\C)CC/C=C(\C)CC1=O [Germacrone] |  |  |  | − | growth of Clostridium perfringens (0.5 ppm sesquiterpene): +; growth of Clostridium perfringens (6 ppm sesquiterpene): +; growth of Clostridium perfringens (30 ppm sesquiterpene): −
10 | CC(=O)OCC=C(C)CCC=C(C)CCC=C(C)C [farnesyl acetate] | − |  | − |  | 
11 | C=C1CC/C=C(\C)CC[C@@H]2[C@@H]1CC2(C)C [β-caryophyllene] | − |  |  | − | growth of Clostridium perfringens (0.2 ppm sesquiterpene): +; growth of Clostridium perfringens (1 ppm sesquiterpene): −
12 | C[C@@H]1CC[C@@H]2[C@@H]1[C@H]1[C@@H](CC[C@]2(C)O)C1(C)C [(−) epiglobulol] | + |  | − | − | growth of Clostridium perfringens (0.5 ppm sesquiterpene): +
13 | CC(C)=CCCC(C)=CCCC(C)=CC=O [Farnesal] | + |  |  |  | 
14 | C=C1C/C=C/C(C)(C)C/C=C(\C)CCC1 [β-humulene] |  | − |  |  | growth of Clostridium perfringens (0.4 ppm sesquiterpene): +
15 | CC1=CC[C@@]23[C@@H]([C@@H]12)[C@H](C(C)C)CC[C@H]3C [α-cubebene] |  | − |  | − | 
16 | bisabolene/farnesene | − | − | − |  | growth of Clostridium perfringens (0.3 ppm sesquiterpene): +
17 | C=C1CC[C@@H]2[C@H]([C@@H]3[C@H](C)CC[C@H]13)C2(C)C [allo-aromadendrene] | − |  |  | − | 
18 | C=CC(C)(O)CCC=C(C)CCC=C(C)C (centres unmarked) [Nerolidol] | + |  | − |  | 
19 | CC1=C2CC[C@@H](C)[C@H]2[C@H]2[C@@H](CC1)C2(C)C [(+) ledene] | − | − |  | − | 
20 | CC1=CC[C@H]2[C@H]3[C@@H]1[C@]2(C)CC[C@H]3C(C)C [α-copaene] |  | − |  | − | growth of Clostridium perfringens (0.5 ppm sesquiterpene): +
21 | C=C1C=CC(C)(C)CCCC(C)=CCC1 [γ-humulene] |  |  |  |  | growth of Clostridium perfringens (0.4 ppm sesquiterpene): +
22 | C=C1[C@H]2CC[C@@H]3[C@H]2C(C)(C)CCC[C@]13C [Longifolene] | − | − | − |  | growth of Clostridium perfringens (0.3 ppm sesquiterpene): +
23 | CC(=O)O[C@]1(C)CC[C@@]23C[C@@H]1C(C)(C)[C@@H]2CC[C@H]3C [cedryl acetate] | − |  | − |  | 
24 | CC1=CC[C@@]23C[C@@H]1C(C)(C)[C@@H]2CC[C@H]3C [α-cedrene] | − | − | − |  | 
25 | C[C@@H]1CC[C@H]2C(C)(C)[C@H]3C[C@@]12CC[C@@]3(C)O [Cedrol] | + |  | − |  | 
26 | (−) globulol | + |  | − | − | growth of Clostridium perfringens (0.5 ppm sesquiterpene): +
